In brackets after ≈: the same amount, converted by molar mass.
Assays:
[1] = test system: P. aeruginosa; test: HTS total bacterial growth assay (optical density OD560); assay type: cell-based, Pseudomonas aeruginosa; details: for AC50: Pseudomonas aeruginosa, 10 point dose-response 0.1-50 μM, read-out: Total Bacteria Growth AC50
Text: (§1) Each HTS tier consisted of: (i) primary screening, (ii) confirmation screening and (iii) dose-response curve screening. Each tier of HTS included three distinct biological process assays. The first assay was an optical density measurement of bacteria growth in the presence of each compound reported as a total bacteria growth. In the second assay, resazurin solution was used as an indicator of metabolic activity to measure the live bacteria in the biofilms, reported as live biofilm. The final assay was crystal violet staining, which indicated the amount of biofilm formation and the effect of each compound on this process, reported as total biofilm formation.
(§2) Briefly, stationary phase bacteria grown in L-broth were diluted 1:200 into fresh L-broth and 50 μM of each test compound. After 20-24 hours, the optical density (OD560) of each suspension was measured using Zeiss Plate::Vision with a 560 BP filter (560 nm, 2.5% light intensity, 1 mm focus to bottom of plate, and exposure time of 100 ms). To measure bacterial viability in the biofilm, 50 μl of a 5 mg/ml resazurin solution in L-broth was added to each well after washing 3 times with 50 μl of PBS. The plates were then incubated at 37° C. for 30 or 180 min for A. baumannii and P. aeruginosa biofilms, respectively. Fluorescence was measured using Zeiss Plate::Vision at excitation and emission wavelengths of 535 and 580 nm, 100 ms exposure time, 2.5% intensity and a 2 mm focus to the bottom of the biofilms. To assess biofilm formation, plates were washed 3 times with PBS and then 50 μl of 0.01% of crystal violet was added to each well to assess bacterial biofilm formation as described in a similar borosilicate tube assay by O'Toole and Kolter. After incubation at room temperature for 30 min and removal of the crystal violet solution by washing with PBS, 95% ethanol was added to solubilize the crystal violet followed by incubation for 20 min at room temperature. Finally, the optical density of each plate was determined using measured by Zeiss Plate::Vision using the same settings used to measure total bacterial growth. These 3 steps were used in each of the three tiers for the HTS process: (i) single point primary screening at 10 μM, (ii) triplicate confirmation of hits from (i) at 10 μM and (iii) determination of AC50 values in 10 point dose-response at a concentration range of 0.1-50 μM) in hits from (ii). The AC50 represents the concentration of compound that inhibits 50% of bacterial growth, bacterial viability, or biofilm formation. Genedata Screener® Assay Analyzer Software (Ver. 9.0.0 Standard) was used to analyze data from all assay tiers. Compounds with an AC50 of less than 20 μM in one of the biological assays from the dose response screen were subject to additional investigation.

[2] = test system: A. baumannii; test: MIC determination (CLSI, Mueller Hinton broth), planktonic cultures; assay type: cell-based, Acinetobacter baumannii; details: MH, Aerobic; for MIC: Acinetobacter baumannii, read-out: Minimum Inhibition Concentration
Experimental: A standard protocol for determining the MIC of a specific compound as outlined by the Clinical and Laboratory Standards Institute (CLSI) was used, based on growth of the selected bacteria in Mueller Hinton (MH) broth with subsequent 2-fold dilutions of compounds of interest. Following the CLSI protocols, the MIC of each broad spectrum “hit” compound was performed in all 3 bacterial species in both aerobic and anaerobic conditions. All bacteria were grown in MH broth for 18 hrs at 37° C. The cells were then diluted 100-fold into MH broth containing compounds at concentrations ranging from 0.40-50 μM in the presence of either KNO3 or glucose to allow bacterial growth under anaerobic condition. After 24 hrs of incubation, cell growth was measured at OD600 using a SpectraMax 190 Absorbance Microplate Reader.
The HTS and CLSM assays identified and confirmed compounds that can inhibit biofilms formation in aerobic growth conditions. However, P. aeruginosa and S. epidermidis are capable of growth under anaerobic as well as aerobic conditions. […] The Minimal Inhibitory Concentrations (MIC) of the four broad agent hit compounds under both aerobic and anaerobic conditions of planktonic P. aeruginosa and S. epidermidis cultures were determined to evaluate compound efficacy in different growth conditions. The MICs for A. baumannii were determined only in aerobic conditions. To examine growth in aerobic conditions, bacteria were grown in either Mueller Hinton (MH) media only, MH media in the presence of 1% KNO3, or MH in the presence of 1% glucose. For MIC determinations under anaerobic conditions, growth was examined in MH media with 1% KNO3 or with 1% glucose.

[3] = test system: A. baumannii biofilm; test: HTS total biofilm formation assay (crystal violet staining); assay type: cell-based, Acinetobacter baumannii; details: for AC50: Acinetobacter baumannii, 10 point dose-response 0.1-50 μM
Text: as §1, §2

[4] = test system: S. epidermidis; test: HTS total bacterial growth assay (optical density OD560); assay type: cell-based; details: Staphylococcus epidermidis, dose-response, read-out: Total Bacteria Growth AC50
Text: as §1, §2

For `Cn1sc(Cl)c(C#N)c1=O` [Compound 3, 5-chloro-2-methyl-3-oxo-1,2-thiazole-4-carbonitrile], the AC50 [1] was 9.27 µM, the MIC [2] was 5 to 6 µM (≈ 0.873 to 1.05 µg/mL) and the “Minimum Inhibition Concentration” value [2] was 6.25 ± 2.21 µM. It also gave an AC50 [3] of 4.45 µM and an AC50 [4] of 8.89 µM.

`NC(=S)N1CCN(c2cc3c(cc2F)c(=O)c(C(=O)O)cn3C2CC2)CC1` [Compound 7, 7-(4-carbamothioylpiperazin-1-yl)-1-cyclopropyl-6-fluoro-4-oxoquinoline-3-carboxylic acid] was tested, and the AC50 [1] was 3 µM, the MIC [2] was 16 µM (≈ 6.25 µg/mL) and the “Minimum Inhibition Concentration” value [2] was 16.67 ± 4.17 µM. The AC50 [3] was 17.7 µM and the AC50 [4] was 2.2 µM.

With `O=C(O)c1cn(C2CC2)c2c(F)c(N3CC(O)C3)c(F)cc2c1=O` [Compound 8, 1-cyclopropyl-6,8-difluoro-7-(3-hydroxyazetidin-1-yl)-4-oxoquinoline-3-carboxylic acid] the AC50 [1] was 44.4 µM, the “HTS assay results: Total Bacteria growth” value ([1]; Y / —) was “—* (AC50 higher than 20 μM)” and the MIC [2] was ~1 µM (≈ 0.336 µg/mL). For the same compound, the “HTS assay results: Biofilm Formation” value ([3]; Y / —) was “—* (AC50 higher than 20 μM)” and the AC50 [4] was < 0.1 µM.

In the case of `O=C(O)c1cn(C2CC2)c2c(F)c(-c3ccncc3)c(F)cc2c1=O` [Compound 11, 7-(4-pyridyl)-1-cyclopropyl-6,8-difluoro-4-oxoquinoline-3-carboxylic acid], the AC50 [1] is reported as 16 µM, the MIC [2] is reported as 5 to 6 µM (≈ 1.71 to 2.05 µg/mL) and the “Minimum Inhibition Concentration” value [2] is reported as 5.12 ± 1.04 µM. The AC50 [3] was 0.85 µM and the AC50 [4] was < 0.1 µM.
